# Assay results as given in paper PMC11672400, “Synthesis, Spectroscopic Characterization, Structural Analysis, and Evaluation of Anti-Tumor, Antimicrobial, and Antibiofilm Activities of Halogenoaminopyrazoles Derivatives” (Antibiotics, 2024).
# Where two headings read alike, the source gives them in different places.
# How the values were obtained:
# [1] = tested on: Staphylococcus aureus ATCC25923; test: Qualitative evaluation of antimicrobial activity (inhibition zone, spot on agar); format: cell-based; parameters: key: (+) inhibited bacterial growth; (-) did not inhibit bacterial growth; settings: 0.06 g/2 mL DMSO, 5 µL spot
# Experimental: (§1) For testing the antimicrobial/antibiofilm activity, the concentration of the studied compounds was identical to 0.06 g/2 mL DMSO. 0.5 Standard McFarland suspension was used, which was inoculated onto Mueller Hinton agar plates, (Remel, Lenexa, KS, USA), 5 µL of each compound was spotted and incubated overnight at 37 °C. Antimicrobial activity was observed as zones of inhibition formed around the spot.
# [2] = tested on: Escherichia coli ATCC25922; test: as above; format: cell-based; parameters: key: (+) inhibited bacterial growth; (-) did not inhibit bacterial growth; settings: 0.06 g/2 mL DMSO, 5 µL spot
# Experimental: as §1
# [3] = tested on: Pseudomonas aeruginosa ATCC27853; test: as above; format: cell-based; parameters: key: (+) inhibited bacterial growth; (-) did not inhibit bacterial growth; settings: 0.06 g/2 mL DMSO, 5 µL spot
# Experimental: as §1
# [4] = tested on: Enterococcus faecalis ATCC29212; test: as above; format: cell-based; parameters: key: (+) inhibited bacterial growth; (-) did not inhibit bacterial growth; settings: 0.06 g/2 mL DMSO, 5 µL spot
# Experimental: as §1
# [5] = tested on: HEp-2 epithelial tumor cells; test: MTT cell viability / anti-tumor activity; settings: for viability at 3.1 µg/mL / viability at 6.25 µg/mL / viability at 12.5 µg/mL / viability at 25 µg/mL / viability at 50 µg/mL / IC50: Homo sapiens; for viability at 3.1 µg/mL / viability at 6.25 µg/mL / viability at 12.5 µg/mL / viability at 25 µg/mL / viability at 50 µg/mL: read-out: Cell viability on Hep2 cells (%); for IC50: read-out: IC50 µg/mL on HEp-2 Cells 48 h, HEp-2 epithelial tumor cells, MTT, 48 h
# Experimental: The cytotoxicity of the halogenoaminopyrazole derivatives 4a–f and 5a–e was tested on L929 mouse fibroblast cells, and their anti-tumor activity was evaluated on the human carcinoma epithelial cell line HEp-2. The experiments were performed in a concentration range of 3.1–50 μg/mL.
# The MTT test was used, 3-(4,5-dimethylthiazol-2-yl)-2,5-diphenyl tetrazolium bromide), which is reduced to insoluble purple-blue formazan crystals precipitated by living cells. Cell viability assessed using the MTT assay reflects the activity of mitochondrial enzymes in treated cells compared to the control culture of untreated cells.
# To assess the biocompatibility of the substances, a stable mouse fibroblast cell line, NCTC (clone 929), was grown in minimal essential medium (MEM) with 10% fetal bovine serum (FBS) and 2 mM L-glutamine, along with 100 U/mL penicillin, 100 µg/mL streptomycin, and 500 µg/mL neomycin. The concentration of the compounds used was 0.06 g/2 mL DMSO.
# In cytotoxicity experiments, compound solutions were utilized at concentrations of 3.1 μg/mL, 6.25 μg/mL, 12.5 μg/mL, 25 μg/mL, and 50 μg/mL. The NCTC cell suspension was placed into 96-well culture plates with a concentration of 4 × 10^4 cells/mL and incubated at 37 °C for 24 h in a 5% CO2 humidified atmosphere. The compounds under study were placed in sets of three at varying concentrations ranging from 3.1 μg/mL to 50 μg/mL in every well, and the plates were then kept under standard conditions for 48 h. Cell viability was determined through the utilization of the MTT assay. Next, the MTT solution was removed, then isopropanol was added to solubilize the formazan crystals. The colored solution was then measured for absorbance at 570 nm using a Berthold Technologies, LB 940 microplate reader (Bad Wildbad, Germany). The outcomes were determined based on Formula (1) while considering that the recorded optical density is directly related to the number of viable cells in the cell culture being examined [35, 36]. % cell viability = (OD sample/OD control) × 100%(1)
# For each tested compound, a graph representing percentage cell viability versus concentrations (in the range 3.1–50 µg/mL) was obtained. Then, the IC50 value was calculated by using ED50 plus V1.0 software.
# [6] = tested on: Staphylococcus aureus ATCC25923; test: MIC by serial microdilution in liquid medium; format: cell-based; settings: 24 h, 37 °C; for MIC: Staphylococcus aureus, ATCC25923, read-out: Minimum inhibitory concentration, Staphylococcus aureus ATCC25923
# Summary of the method: (§2)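 Twofold serial dilutions from a DMSO stock (10 mg/mL) in Tryptone Soy Broth, inoculated with 10 µL of a 10^6 CFU/mL suspension, incubated 24 h at 37 °C. Growth judged visually and by OD 620 nm; MIC (µg/mL) is the lowest concentration without growth, run in triplicate.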
# [7] = tested on: Escherichia coli ATCC25922; test: MIC by serial microdilution in liquid medium; format: cell-based; settings: 24 h, 37 °C; for MIC: Escherichia coli, ATCC25922, read-out: Minimum inhibitory concentration, Escherichia coli ATCC25922
# Summary of the method: as §2
# [8] = tested on: Pseudomonas aeruginosa ATCC27853; test: MIC by serial microdilution in liquid medium; format: cell-based; settings: Pseudomonas aeruginosa, ATCC27853; 24 h, 37 °C; read-out: Minimum inhibitory concentration, Pseudomonas aeruginosa ATCC27853
# Summary of the method: as §2
# [9] = tested on: Enterococcus faecalis ATCC29212; test: MIC by serial microdilution in liquid medium; format: cell-based; settings: Enterococcus faecalis, ATCC29212; 24 h, 37 °C; read-out: Minimum inhibitory concentration, Enterococcus faecalis ATCC29212
# Summary of the method: as §2
# [10] = tested on: NCTC (clone 929) mouse fibroblast cells; test: MTT cell viability / cytotoxicity on normal fibroblasts; format: cell-based; settings: Mus musculus, NCTC clone 929; NCTC normal fibroblasts, MTT, 48 h
# Text: (§3) Merck chemicals were utilized.
# (§4) Untreated cells were used as control, considered 100% viable cells.
# [11] = as above; format: cell-based, mouse; settings: mouse, read-out: Cell viability on NCTC cells (%)
# Text: as §3, §4
# [12] = tested on: Staphylococcus aureus ATCC25923; test: Antibiofilm assay (crystal violet), MBIC; format: cell-based; settings: 24 h, 37 °C; for minimal effective concentration: Staphylococcus aureus, ATCC25923, read-out: Minimum biofilm inhibition concentration (MBIC), Staphylococcus aureus ATCC25923
# Summary of the method: (§5)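 Biofilms grown in nutrient broth with test substances for 24 h at 37 °C. After rinsing with sterile physiological water, attached cells were fixed 5 min with methanol, then crystal violet stained.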
# [13] = tested on: Escherichia coli ATCC25922; test: Antibiofilm assay (crystal violet), MBIC; format: cell-based; settings: 37 °C; for minimal effective concentration: Escherichia coli, ATCC25922, 24 h, read-out: Minimum biofilm inhibition concentration (MBIC), Escherichia coli ATCC25922; for Minimum biofilm inhibition concentration (MBIC), Escherichia coli ATCC25922: 24 h
# Summary of the method: as §5
# [14] = tested on: Pseudomonas aeruginosa ATCC27853; test: Antibiofilm assay (crystal violet), MBIC; format: cell-based; settings: 37 °C; for minimal effective concentration: Pseudomonas aeruginosa, ATCC27853, 24 h, read-out: Minimum biofilm inhibition concentration (MBIC), Pseudomonas aeruginosa ATCC27853; for Minimum biofilm inhibition concentration (MBIC), Pseudomonas aeruginosa ATCC27853: 24 h
# Summary of the method: as §5
# [15] = tested on: Enterococcus faecalis ATCC29212; test: Antibiofilm assay (crystal violet), MBIC; format: cell-based; settings: Enterococcus faecalis, ATCC29212, 24 h, 37 °C, read-out: Minimum biofilm inhibition concentration (MBIC), Enterococcus faecalis ATCC29212
# Summary of the method: as §5
Structure (SMILES),"Qualitative antimicrobial activity, Staphylococcus aureus ATCC25923 [1]","Qualitative antimicrobial activity, Escherichia coli ATCC25922 [2]","Qualitative antimicrobial activity, Pseudomonas aeruginosa ATCC27853 [3]","Qualitative antimicrobial activity, Enterococcus faecalis ATCC29212 [4]","viability at 3.1 µg/mL ([5]; HEp-2, 24 h) [%]","viability at 6.25 µg/mL ([5]; HEp-2, 24 h) [%]","viability at 12.5 µg/mL ([5]; HEp-2, 24 h) [%]","viability at 25 µg/mL ([5]; HEp-2, 24 h) [%]","viability at 50 µg/mL ([5]; HEp-2, 24 h) [%]","viability at 3.1 µg/mL ([5]; HEp-2, 48 h) [%]","viability at 6.25 µg/mL ([5]; HEp-2, 48 h) [%]","viability at 12.5 µg/mL ([5]; HEp-2, 48 h) [%]","viability at 25 µg/mL ([5]; HEp-2, 48 h) [%]","viability at 50 µg/mL ([5]; HEp-2, 48 h) [%]","IC50 ([5]; HEp-2, 48 h) [µg/mL]",MIC [6] [µg/mL],MIC [7] [µg/mL],MIC [8] [µg/mL],MIC [9] [µg/mL],IC50 [10] [µg/mL],other results
"Cc1nn(CN(Cn2nc(C)c([N+](=O)[O-])c2C)c2ccc(I)cc2)c(C)c1[N+](=O)[O-] [5d, N,N-bis-[(3,5-dimetyl-4-nitro-1H-pyrazol-1-yl)-methyl]-4-iodoaniline]",-,-,-,-,88.45 ± 0.28,89.15 ± 0.73,91.41 ± 0.69,89.86 ± 0.48,89.86 ± 0.16,96.17 ± 0.13,78.61 ± 0.67,61.51 ± 0.34,45.75 ± 0.33,20.8,26.61 ± 0.11,1870 ± 0.07,1870 ± 0.04,1870 ± 0.04,1870 ± 0.05,> 50,"viability at 24 h, 3.1 µg/mL [11]: 103 ± 1.49%; viability at 48 h, 3.1 µg/mL [11]: 93.58 ± 0.71%; viability at 24 h, 6.25 µg/mL [11]: 108 ± 2.4%; viability at 48 h, 6.25 µg/mL [11]: 103%; viability at 24 h, 12.5 µg/mL [11]: 106 ± 2.05%; viability at 48 h, 12.5 µg/mL [11]: 102 ± 3.03%; viability at 24 h, 25 µg/mL [11]: 98.4 ± 3.87%; viability at 48 h, 25 µg/mL [11]: 95.8 ± 2.12%; viability at 24 h, 50 µg/mL [11]: 83 ± 2.9%; viability at 48 h, 50 µg/mL [11]: 88.3 ± 1.55%; minimal effective concentration [12]: 930 ± 0.15 µg/mL; minimal effective concentration [13]: 1870 ± 0.15 µg/mL; minimal effective concentration [14]: 930 ± 0.15 µg/mL; minimal effective concentration [15]: 1870 ± 0.15 µg/mL"
"Cc1nn(CN(Cn2nc(C)c([N+](=O)[O-])c2C)c2ccc(F)cc2)c(C)c1[N+](=O)[O-] [5a, N,N-bis-[(3,5-dimetyl-4-nitro-1H-pyrazol-1-yl)-methyl]-4-fluoroaniline]",+,+,+,-,90.8 ± 1.1,104.4 ± 0.32,96.6 ± 3.1,82.7 ± 1.85,57.2 ± 1.13,90.1 ± 2.22,85.2 ± 3.13,80.1 ± 1.54,67.4 ± 3.23,38.8 ± 0.71,40.5 ± 0.79,460,460,460 ± 0.04,930 ± 0.06,> 50,"Minimum inhibitory concentration, Staphylococcus aureus ATCC25923 [6]: 460 ± 0.03 µg/mL; Minimum inhibitory concentration, Escherichia coli ATCC25922 [7]: 460 ± 0.06 µg/mL; melting point: 78 to 80 °C; viability at 24 h, 3.1 µg/mL [11]: 97.7 ± 1.8%; viability at 48 h, 3.1 µg/mL [11]: 87.19 ± 0.7%; viability at 24 h, 6.25 µg/mL [11]: 98.3 ± 2.22%; viability at 48 h, 6.25 µg/mL [11]: 88.7 ± 2.4%; viability at 24 h, 12.5 µg/mL [11]: 100 ± 2.07%; viability at 48 h, 12.5 µg/mL [11]: 98.2 ± 2.04%; viability at 24 h, 25 µg/mL [11]: 97.4 ± 2.4%; viability at 48 h, 25 µg/mL [11]: 93.7 ± 1.17%; viability at 24 h, 50 µg/mL [11]: 88.6 ± 2.66%; viability at 48 h, 50 µg/mL [11]: 92.5 ± 1.32%; Minimum biofilm inhibition concentration (MBIC), Staphylococcus aureus ATCC25923 [12]: 230 ± 0.05 µg/mL; minimal effective concentration [12]: 230 µg/mL; Minimum biofilm inhibition concentration (MBIC), Escherichia coli ATCC25922 [13]: 460 ± 0.12 µg/mL; minimal effective concentration [13]: 460 µg/mL; Minimum biofilm inhibition concentration (MBIC), Pseudomonas aeruginosa ATCC27853 [14]: 460 ± 0.12 µg/mL; minimal effective concentration [14]: 460 µg/mL; minimal effective concentration [15]: 930 ± 0.14 µg/mL"
"Cc1nn(CN(Cn2nc(C)c([N+](=O)[O-])c2C)c2ccc(Cl)cc2)c(C)c1[N+](=O)[O-] [5b, N,N-bis-[(3,5-dimetyl-4-nitro-1H-pyrazol-1-yl)-methyl]-4-chloroaniline]",+,+,+,+,105 ± 1.52,104 ± 2.25,102 ± 3.76,90.8 ± 2.84,65.3 ± 2.02,110 ± 1.25,94.7 ± 3.8,87.1 ± 0.92,74.8 ± 0.33,54.6 ± 1.17,26.6 to 47.3,460,460,460 ± 0.58,460 ± 0.54,29.8 ± 0.32,"IC50 µg/mL on HEp-2 Cells 48 h ([5]; HEp-2 epithelial tumor cells, MTT, 48 h): >50 µg/mL; Minimum inhibitory concentration, Staphylococcus aureus ATCC25923 [6]: 460 ± 0.01 µg/mL; Minimum inhibitory concentration, Escherichia coli ATCC25922 [7]: 460 ± 0.27 µg/mL; melting point: 132 to 134 °C; viability at 24 h, 3.1 µg/mL [11]: 99.1 ± 3.42%; viability at 48 h, 3.1 µg/mL [11]: 100 ± 2.53%; viability at 24 h, 6.25 µg/mL [11]: 103 ± 3.06%; viability at 48 h, 6.25 µg/mL [11]: 94.9 ± 2.14%; viability at 24 h, 12.5 µg/mL [11]: 98.8 ± 3.47%; viability at 48 h, 12.5 µg/mL [11]: 84 ± 3.77%; viability at 24 h, 25 µg/mL [11]: 70 ± 2.51%; viability at 48 h, 25 µg/mL [11]: 55.2 ± 1.6%; viability at 24 h, 50 µg/mL [11]: 48.6 ± 1.35%; viability at 48 h, 50 µg/mL [11]: 28.1 ± 0.35%; Minimum biofilm inhibition concentration (MBIC), Staphylococcus aureus ATCC25923 [12]: 460 ± 0.01 µg/mL; minimal effective concentration [12]: 460 µg/mL; Minimum biofilm inhibition concentration (MBIC), Escherichia coli ATCC25922 [13]: 460 ± 0.03 µg/mL; minimal effective concentration [13]: 460 µg/mL; Minimum biofilm inhibition concentration (MBIC), Pseudomonas aeruginosa ATCC27853 [14]: 460 ± 0.51 µg/mL; minimal effective concentration [14]: 460 µg/mL"
